# Laboratory results as given in patent publication US20260248879A1, “METHODS OF USING A GCG/GLP1 CO-AGONIST FOR THERAPY” (ELI LILLY AND COMPANY, priority 2022, published 2026).
# Columns and labels:
# [1] = test system: patients with T2DM; test: Example 1 study: fasting pharmacodynamic markers (glucose, insulin, C-peptide, glucagon, lipids, HOMA indices); type: in vivo, human; settings: for mean fasting triglyceride: baseline 1.867; for mean fasting LDL cholesterol: baseline 2.796; for mean fasting total cholesterol: baseline 4.971; for mean fasting insulin: baseline 5.892; for mean fasting C-peptide: baseline 532.8; for mean fasting glucagon: baseline 9.83
# Procedure: Fasting plasma samples for glucose and insulin are explored as secondary PD markers. Exploratory PD may include, but are not limited to plasma glucagon, C-peptide, native OXM, lipid panel (triglycerides, total cholesterol, low-density lipoprotein cholesterol, and high-density lipoprotein cholesterol), beta cell function, and homeostatic model assessment (HOMA) indices.
# Plasma concentrations of at least glucose, glucagon, insulin, C-peptide and native OXM, are assayed using validated analytical methods.
# In respect of Cohort 1, PD sampling occurs at baseline and Days 1, 3 (48 hours post administration of Compound 1), 8, 22, 29, 50, 57, 78 and 80. […]
# [2] = test system: individuals with obesity; test: Example 2 multiple ascending dose study in obesity: body weight, waist circumference; type: in vivo, human
# From the text: This study is designed to evaluate the safety, tolerability, PD and PK of dose to higher doses of Compound 1 in individuals with obesity. The Multiple Ascending Dose (MAD) study is a randomized, investigator- and participant-blind, placebo-controlled, multiple-ascending dose, single- or multi-site study conducted in individuals with obesity (i.e., females or males aged 18-70 years, inclusive, a BMI in the range of 27 kg/m^2 to 50 kg/m^2). Participants should have stable body weight for at least 3 months prior to the initiation of the study. Dose of Compound 1 is assessed with weekly dosing over 20 weeks in 2 cohorts. Each cohort comprises 12 patients-nine patients are administered Compound 1 and three patients are administered placebo. The dose for Cohort 1 is as follows: • 1.5 mg Compound 1 for 2 weeks; • 3.0 mg Compound 1 for 2 weeks; • 6.0 mg Compound 1 for 4 weeks; • 8.0 mg Compound 1 for 4 weeks; • 12.0 mg Compound 1 for 4 weeks; and • 16.0 mg Compound 1 for 4 weeks. The dose for Cohort 2 is as follows: • 2.0 mg Compound 1 for 3 weeks; • 4.0 mg Compound 1 for 3 weeks; • 6.0 mg Compound 1 for 3 weeks; • 8.0 mg Compound 1 for 3 weeks; • 10.0 mg Compound 1 for 2 weeks; • 13.0 mg Compound 1 for 2 weeks, and • 16.0 mg Compound 1 for 4 weeks. Body weight and waist circumference are measured at frequent intervals across dose from Day 1 through Day 138 and for an extended follow-up period after the conclusion of dosing. Mean absolute and percent change in body weight are calculated for Compound 1 and for placebo arms within each cohort and compared to baseline at multiple time points from Day 1 through Day 138 and throughout the extended follow-up period after the conclusion of dosing. Mean absolute and percent change in waist circumference are calculated for Compound 1 and for placebo arms within each cohort and compared to baseline at multiple time points from Day 1 through Day 138 and throughout the extended follow-up period after the conclusion of dosing. While the weight loss described in Example 1 is in a T2D patient population, greater weight loss is typical in an obesity patient population. A multiplier of 1.6-1.8 may be applied to percent weight loss moving from the T2D population to an obesity population.
# [3] = Cohort 2, escalated to 8.0 mg, Day 85
# [4] = Cohort 2, escalated to 10.0 mg, Day 106
# [5] = Cohort 2, escalated to 10.0 mg, Day 106 and Day 108
# [6] = Cohort 2, escalated to 10.0 mg, Day 108
compound,measurement,setting,value
CC(C)C[C@H](NC(=O)[C@H](CC(C)C)NC(=O)[C@H](Cc1c[nH]c2ccccc12)NC(=O)[C@H](CCC(=O)O)NC(=O)[C@@H](NC(=O)[C@H](Cc1ccccc1)NC(=O)[C@H](CCC(=O)O)NC(=O)[C@H](CCCCNC(=O)COCCOCCNC(=O)COCCOCCNC(=O)CC[C@H](NC(=O)CCCCCCCCCCCCCCCCCCC(=O)O)C(=O)O)NC(=O)[C@H](C)NC(=O)[C@H](CCCCN)NC(=O)[C@H](CCCCN)NC(=O)[C@H](CCC(=O)O)NC(=O)[C@H](CC(=O)O)NC(=O)[C@H](CC(C)C)NC(=O)[C@H](Cc1ccc(O)cc1)NC(=O)[C@H](CCCCN)NC(=O)[C@H](CO)NC(=O)[C@H](Cc1ccc(O)cc1)NC(=O)[C@H](CC(=O)O)NC(=O)[C@H](CO)NC(=O)[C@@H](NC(=O)[C@H](Cc1ccccc1)NC(=O)[C@@H](NC(=O)CNC(=O)[C@H](CCC(N)=O)NC(=O)C(C)(C)NC(=O)[C@@H](N)Cc1c[nH]cn1)[C@@H](C)O)[C@@H](C)O)C(C)C)C(=O)N[C@@H](CCC(=O)O)C(=O)NCC(=O)NCC(=O)N1CCC[C@H]1C(=O)N[C@@H](CO)C(=O)N[C@@H](CO)C(=O)NCC(N)=O [Compound 1],mean fasting triglyceride,[1]; [3],0.855 mmol/L
same,mean HOMA-IR index,"[1]; Cohort 2, escalated to 8.0 mg, Day 85, baseline 2.7",1.976
same,mean fasting LDL cholesterol,[1]; [3],1.954 mmol/L
same,mean fasting total cholesterol,[1]; [3],3.614 mmol/L
same,mean HOMA-B index,"[1]; Cohort 2, escalated to 8.0 mg, Day 85, baseline 9.108",16.689
same,mean fasting insulin,"[1]; Cohort 2, escalated to 8.0 mg",6.589 mIU/L
same,mean fasting C-peptide,"[1]; Cohort 2, escalated to 8.0 mg",542 pmol/L
same,approximate decrease of fasting C-peptide from baseline,"[1]; Cohort 2, escalated to 10.0 mg",~18%
same,approximate decrease of fasting insulin from baseline,"[1]; Cohort 2, escalated to 10.0 mg",~20%
same,approximate decrease of fasting total cholesterol from baseline,"[1]; Cohort 2, escalated to 10.0 mg",~31%
same,mean fasting triglyceride,[1]; [4],0.86 mmol/L
same,mean fasting LDL cholesterol,[1]; [4],1.859 mmol/L
same,mean fasting total cholesterol,[1]; [4],3.454 mmol/L
same,mean fasting insulin,[1]; [4],5.355 mIU/L
same,mean fasting glucagon,[1]; [4],1.98 pmol/L
same,mean fasting C-peptide,[1]; [4],511 pmol/L
same,approximate decrease of fasting LDL cholesterol from baseline,[1]; [5],33-34%
same,approximate decrease of fasting triglyceride from baseline,[1]; [5],47-54%
same,approximate decrease of HOMA-IR from baseline,[1]; [6],~51%
same,approximate increase of HOMA-B from baseline,[1]; [6],~33%
same,approximate reduction of mean fasting glucose from baseline,[1]; [6],~43%
same,mean fasting triglyceride,[1]; [6],0.985 mmol/L
same,mean fasting LDL cholesterol,[1]; [6],1.849 mmol/L
same,mean fasting total cholesterol,[1]; [6],3.441 mmol/L
same,mean fasting insulin,[1]; [6],4.74 mIU/L
same,mean fasting glucagon,[1]; [6],1.93 pmol/L
same,mean fasting glucose,"[1]; Cohort 2, escalated to 10.0 mg, Day 108, baseline 10.46",5.91 mmol/L
same,mean fasting C-peptide,[1]; [6],435 pmol/L
same,mean fasting HDL levels,"[1]; Cohort 2, over the dosing period (FIG. 7c)",decreased from baseline
same,reduction of fasting LDL cholesterol,[1]; dose 8.0 mg or higher,≥ 30%
same,reduction of fasting insulin resistance indices,[1]; dose 10 mg or greater,50%
same,reduction of fasting insulin resistance indices,[1]; dose greater than 6.0 mg,greater than 25%
same,reduction of fasting plasma glucagon,[1]; dose greater than 6.0 mg,approximately 80%
same,reduction of fasting triglyceride,[1]; dose greater than 6.0 mg,≥ 50%
same,reduction of fasting total cholesterol,[1]; dose greater than 8.0 mg,more than 30%
same,mean waist circumference change,"[2]; Ex. 2 Cohort 1, Day 85/12 weeks (after 4 weeks of 8 mg), placebo +0.04%",−5.2%
same,mean percent change from baseline in body weight,"[2]; Ex. 2 Cohort 1, Day 113/16 weeks, after 4 weeks of 12 mg, placebo +0.7%",−15.4%
same,mean waist circumference change,"[2]; Ex. 2 Cohort 1, Day 113/16 weeks, after 4 weeks of 12 mg, placebo +1.3%",−6.3%
same,mean waist circumference change,"[2]; Ex. 2 Cohort 1, Day 138/20 weeks, after 4 weeks of 16 mg, placebo +0.4%",−11.5%
same,mean waist circumference change,"[2]; Ex. 2 Cohort 2, Day 85/12 weeks (after 8 mg), placebo +0.04%",−7.6%
same,mean percent change from baseline in body weight,"[2]; Ex. 2 Cohort 2, Day 85/12 weeks (after 8 mg), placebo +0.2%",−11.7%
same,mean percent change from baseline in body weight,"[2]; Ex. 2 Cohort 2, Day 99/14 weeks, after 2 weeks of 10 mg, placebo +0.07%",−13.4%
same,mean waist circumference change,"[2]; Ex. 2 Cohort 2, Day 99/14 weeks, after 2 weeks of 10 mg, placebo +1.0%",−6.8%
same,mean percent change from baseline in body weight,"[2]; Ex. 2 Cohort 2, Day 113/16 weeks, after 2 weeks of 13 mg, placebo +0.7%",−16.2%
same,mean waist circumference change,"[2]; Ex. 2 Cohort 2, Day 113/16 weeks, after 2 weeks of 13 mg, placebo +1.3%",−12.6%
same,mean waist circumference change,"[2]; Ex. 2 Cohort 2, Day 138/20 weeks, after 4 weeks of 16 mg, placebo +0.4%",−16.6%
